Assay: Human HepG2 cell viability assay in 384 well format
Format: toxicity, cell-based
Design: dose 125 nL, time 70.5 hour; concentration not given beside the values
Conditions: HepG2 cells, read-out: Inhibition

CCOCC1CN(S(=O)(=O)C2CC2)Cc2nn(C)cc21 (stereo unspecified) gave a cytotoxicity at 70.5 h of -5.98%.

In the case of Cc1nc([C@@H]2C[C@H]3CN(Cc4ccc5c(c4)OCO5)C[C@H]3O2)no1, the cytotoxicity at 70.5 h is reported as -10.1%.

With CN(C)CC(=O)N1Cc2nnn(C)c2C(COCC2CC2)C1 (stereo unspecified) the cytotoxicity at 70.5 h was -11.8%.

In the case of Cn1nnc2c1C(COCC1CC1)CN(C(=O)C1=CCCC1)C2 (stereo unspecified), the cytotoxicity at 70.5 h is reported as -9.91%.

With O=C(NC1CCc2c(ccc(=O)n2CC2CC2)C1)c1cscn1 (stereo unspecified) the cytotoxicity at 70.5 h was 18.1%.

For Cc1cccc(-c2nnn3c2COC(CNS(=O)(=O)C2CC2)C3)c1 (stereo unspecified), the cytotoxicity at 70.5 h was -9.41%.

O=C(c1cccnc1)N1C[C@@H]2CN(CCN3CCCC3)C(=O)[C@@H]2C1 showed a cytotoxicity at 70.5 h of -6.24%.

In the case of Cc1nn(CCNS(=O)(=O)NCc2ccccc2)c(C)c1Cl, the cytotoxicity at 70.5 h is reported as -6.81%.

CCn1ncnc1CN1CCc2[nH]cnc2C1c1ccccn1 (stereo unspecified) showed a cytotoxicity at 70.5 h of 14.3%.

With COCCN(C)C(C(=O)O)c1ccc2ccccc2c1 (stereo unspecified) the cytotoxicity at 70.5 h was 6.21%.

Work on Cc1ncc2c(c1-c1noc(-c3cscn3)n1)CCNC2 yielded a cytotoxicity at 70.5 h of 7.48%.

O=C1CCC2(CCNCC2)CN1Cc1nnc2ccccn12 gave a cytotoxicity at 70.5 h of -5.01%.

Cc1nc(NC(=O)N2CCCC(C(C)(C)O)C2)nn1C (stereo unspecified) gave a cytotoxicity at 70.5 h of -6.42%.

Work on CCc1nc(C)c([C@H]2CN(C)C[C@@H]2C(=O)NCc2ccccc2OC)[nH]1 yielded a cytotoxicity at 70.5 h of -2.21%.

In the case of Nc1nc2c(c(N3CCN(C(=O)c4cccs4)CC3)n1)CCCC2, the cytotoxicity at 70.5 h is reported as -2.27%.

Molecule CCNC(=O)[C@@H]1C[C@H](NC(=O)c2ccc(C)s2)CN1Cc1ccc(C)o1 has a cytotoxicity at 70.5 h of 16.1%.

With O=C(CNCc1ccccc1Cn1cccn1)Nc1cnccn1 the cytotoxicity at 70.5 h was -9.54%.

For CN(C)C[C@@H]1CN(C(=O)Cc2ccc3ccccc3c2)C[C@@H]1CO, the cytotoxicity at 70.5 h was -8.64%.

With Cc1ccc(-c2nc(CN3C[C@@H](C)NC[C@@H]3C)c(C)o2)s1 the cytotoxicity at 70.5 h was -11.5%.

In the case of CCN(CCO)C[C@@H]1CN(c2cc(C(F)(F)F)cc(C)n2)C[C@@H]1CO, the cytotoxicity at 70.5 h is reported as -8.43%.

COc1cc(C(C)=O)ccc1OC12CCCN(CC1)C2 (stereo unspecified) showed a cytotoxicity at 70.5 h of 12.8%.

For COc1ccc(CN2CCCC(N3CCCC3)C2)cc1Cn1cncn1 (stereo unspecified), the cytotoxicity at 70.5 h was 10.6%.

For COc1cccc(N2CCN(C(=O)C(O)CC(C)C)CC2=O)c1 (stereo unspecified), the cytotoxicity at 70.5 h was -2.41%.

In the case of Cn1cc(CNCC2(N3CCCCC3)Cc3ccccc3C2)cn1, the cytotoxicity at 70.5 h is reported as -4.33%.

Work on Cc1cccc(-c2nc(N)nc3c2CN(C(=O)C2CCCC2)C3C)c1 (stereo unspecified) yielded a cytotoxicity at 70.5 h of -18.6%.

With Cc1cnccc1N1CCCN(C(=O)CCCn2ccnc2C)CC1 the cytotoxicity at 70.5 h was -6.13%.

Molecule CCc1cnc(N)nc1NCCc1ccc(OC)cc1OC has a cytotoxicity at 70.5 h of -0.653%.

c1ccc2c(c1)CN(c1ncnc3sc4c(c13)CCNC4)CCO2 showed a cytotoxicity at 70.5 h of 0.0341%.

For Clc1cc(N2CCN3CCCCC3C2)nc2[nH]ccc12 (stereo unspecified), the cytotoxicity at 70.5 h was -0.311%.

Molecule CSc1ccc(C(C(=O)O)N2CCC(CO)CC2)cc1 (stereo unspecified) has a cytotoxicity at 70.5 h of 25.1%.

COc1cc(CN(Cc2ccccn2)CC(C)C)cc2c1OCO2 gave a cytotoxicity at 70.5 h of -0.968%.

COc1ccccc1C(O)CNc1nccc(-c2ccc(C)nc2C)n1 (stereo unspecified) showed a cytotoxicity at 70.5 h of -14%.

With CCc1nc(CCNS(=O)(=O)c2cccc(C(=O)N(C)CC)c2)cs1 the cytotoxicity at 70.5 h was -16%.

With CCn1ccnc1CN1CCN(Cc2ccc(C)o2)[C@@H]2CS(=O)(=O)C[C@@H]21 the cytotoxicity at 70.5 h was -4.31%.

Work on C[C@@H]1CN(C(=O)c2cn(CCN3CCCCC3)nn2)C[C@H](C)O1 yielded a cytotoxicity at 70.5 h of -0.236%.

CCC[C@H]1CN(c2cncc(C(=O)N3CCCCC3)n2)C[C@@H]1N(C)C showed a cytotoxicity at 70.5 h of -3.35%.

Molecule CCc1c(C)nc(C)nc1N1C[C@@H](CN(C)CCN(C)C)[C@@H](CO)C1 has a cytotoxicity at 70.5 h of -9.98%.

With CCc1noc(CN(CC)Cc2cc3ccc(C)cc3[nH]c2=O)n1 the cytotoxicity at 70.5 h was 7.76%.

For C[C@@H]1CN(c2nc3c(cc2C(N)=O)CCC3)C[C@@]1(O)C1CCC1, the cytotoxicity at 70.5 h was -11.3%.

For Cc1c(C(=O)N2CCC3(CCCNC3=O)C2)sc2nc[nH]c(=O)c12 (stereo unspecified), the cytotoxicity at 70.5 h was -7.46%.

Work on CC(C)c1nnsc1CNC(=O)C1CCN(C(=O)C2CCC2)CC1 yielded a cytotoxicity at 70.5 h of -5.12%.

In the case of Cc1ccc(C)c2c(O)cc(CNCC(=O)N3CCCC3)nc12, the cytotoxicity at 70.5 h is reported as 22%.

CCCc1cncnc1N1CCC2(CCC(=O)N(CCCO)C2)CC1 gave a cytotoxicity at 70.5 h of -10.1%.

In the case of Cc1nccn1CCCN1CCC2(CCC(=O)N(CC3CC3)C2)CC1, the cytotoxicity at 70.5 h is reported as -7.09%.

Work on COCC(=O)N1CCC2(CCCN(Cc3ccc(Cl)cc3)CC2)CC1 yielded a cytotoxicity at 70.5 h of 44.6%.

With Oc1cccc(CN2C[C@H]3CC[C@@H]2CN(Cc2ccncc2)C3)c1 the cytotoxicity at 70.5 h was -12.3%.

CCCn1ncc(CN(Cc2cccnc2)Cc2ccsc2)c1C gave a cytotoxicity at 70.5 h of 16.8%.

In the case of CO[C@H]1C[C@@H](O)C12CCN(CCCOc1ccc(C(N)=O)cc1)CC2, the cytotoxicity at 70.5 h is reported as -2.22%.

For COc1ccc2c(c1)OCC(CNC(=O)c1cnc(O)cn1)C2 (stereo unspecified), the cytotoxicity at 70.5 h was -3.99%.

With Cc1ccsc1[C@@H]1CCN(C(=O)CCCn2cncn2)C[C@H]1O the cytotoxicity at 70.5 h was -7.81%.

CNc1nc(N2CCN(C)C(CCO)C2)nc2c1CCC2 (stereo unspecified) showed a cytotoxicity at 70.5 h of 2.44%.

In the case of COCC(=O)N1CCC2(CC1)c1ccccc1[C@@H](N1CCSCC1)[C@@H]2O, the cytotoxicity at 70.5 h is reported as 4.64%.

With Cc1cnc(C)c(Oc2ccc(Cl)c(CN3CCCC3)c2Cl)n1 the cytotoxicity at 70.5 h was 18.5%.

O=C(c1ccc(-n2cnnc2)nc1)N1CCCC(O)(CO)CC1 (stereo unspecified) showed a cytotoxicity at 70.5 h of -22.7%.

Work on CC(C)c1nnsc1CN1CCc2[nH]nc(-c3ccc(F)c(F)c3)c2C1 yielded a cytotoxicity at 70.5 h of -11.6%.

Work on Cc1cc(N2CCN(Cc3ccsc3)C(CCO)C2)nc(N)n1 (stereo unspecified) yielded a cytotoxicity at 70.5 h of -6.22%.

— ChEMBL document CHEMBL3507680, “University of Dundee, Gates Library screen for HepG2 cell viability”
